Literature values as cited in patent US20200254002A1, “COMBINATION THERAPIES FOR TREATING MUSCULAR DYSTROPHY” (SAREPTA THERAPEUTICS, INC., priority 2017, published 2020).
Entries after “also recorded” stand apart in the source; their conditions may differ. Read-outs that look alike come from different tables or passages of the source.

Assays:
[1] = phase I clinical program in adults
[2] = tested on: NF-κB p65
[3] = tested on: cNF-κB; conditions: in vitro
[4] = tested on: Mdx mice
[5] = tested on: ryanodine receptor; conditions: patient cells and a mouse model of DMD
[6] = tested on: dystrophin protein
[7] = tested on: dystrophin; conditions: DMD patients
[8] = tested on: exon 53 of dystrophin pre-mRNA; conditions: for Exon skipping in DMD patients: all 25 patients, at least 48 weekly doses
[9] = tested on: normal human skeletal muscle cells or muscle cells from DMD patients; conditions: RT-PCR and Western blot
[10] = tested on: immune response; conditions: rat, in vivo
[11] = tested on: human DMD transcript; conditions: hDMD mouse model
[12] = Part 1 patients, 60-76 weeks dosing
[13] = Part 2 patients, ~48-51 weeks dosing
[14] = Part 2/Pl patients, 48-51 weeks

CC/C=C\C/C=C\C/C=C\C/C=C\C/C=C\C/C=C\CCC(=O)NCCNC(=O)c1ccccc1O [CAT-1004, N-(2-[(4Z,7Z,10Z,13Z,16Z,19Z)-docosa-4,7,10,13,16,19-hexaenamido]ethyl)-2-hydroxybenzamide]
Safety and tolerability [1]: safe, well tolerated

CC/C=C\C/C=C\C/C=C\C/C=C\C/C=C\CCCC(=O)NCCNC(=O)c1ccccc1O [CAT-1041]
Dystrophic phenotype ([2]; GRMD dog, long-term treatment): improves the phenotype
Diaphragm function ([2]; dog DMD model): improved diaphragm function
cNF-κB activation [3]: inhibit cNF-κB activation in vitro
Exercise endurance ([4]; mdx mice): increased exercise endurance
Inflammation and fibrosis ([4]; mdx mice): reduced inflammation and fibrosis
Muscle fibrosis ([4]; mdx mice, long-term studies): reduces muscle fibrosis
Muscle function ([4]; mdx mice, long-term studies): preserves muscle function
Skeletal muscle weight ([4]; mdx mice, long-term studies): increases skeletal muscle weight
Dystrophic phenotype ([4]; mdx mouse, long-term treatment): improves the phenotype
Diaphragm function ([4]; mouse DMD model): improved diaphragm function

O=C1CN(/N=C/c2ccc(-c3ccc([N+](=O)[O-])cc3)o2)C(O)=N1 [dantrolene]
Antisense-mediated exon skipping [5]: enhance antisense-mediated exon skipping

all-P-ambo-[P,2′,3′-trideoxy-P-(dimethylamino)-2′,3′-imino-2′,3′-seco](2′a[…]5′)(GTTGCCTCCGGTTCTGAAGGTGTTC) 5′-[4-({2-[2-(2-hydroxyethoxy)ethoxy]ethoxy}carbonyl)-N,N-dimethylpiperazine-1-phosphonamidate] [SRP-4053]
Mean Change from baseline (SD), dystrophin by Western blot ([6]; All patients): 0.92 (1.01)
On treatment Mean % normal (SD), dystrophin by Western blot ([6]; All patients): 1.02 (1.03) % normal
Dystrophin protein as measured by Western blot ([6]; DMD patients, over baseline): statistically significant increase over baseline in dystrophin protein
Mean Change from baseline (SD), dystrophin by Western blot [6, 12]: 1.29 (1.51)
On treatment Mean % normal (SD), dystrophin by Western blot [6, 12]: 1.40 (1.57) % normal
Mean Change from baseline (SD), dystrophin by Western blot [6, 13]: 0.75 (0.67)
On treatment Mean % normal (SD), dystrophin by Western blot [6, 13]: 0.84 (0.64) % normal
Baseline Mean % normal (SD), dystrophin by Western blot ([6]; All patients): 0.09 (0.07) % normal
Baseline Mean % normal (SD), dystrophin by Western blot [6, 12]: 0.10 (0.09) % normal
Baseline Mean % normal (SD), dystrophin by Western blot [6, 13]: 0.09 (0.06) % normal
Mean fiber intensity, de novo dystrophin ([7]; above baseline): statistically significant increase (p<0.001) above baseline in de novo dystrophin
Sarcolemmal dystrophin localization ([7]; listed as Golodirsen): correctly localized to the sarcolemma membrane; also recorded: observed in all patients
Decrease from Baseline (RT-PCR, patients) ([8]; All patients): 0
Fold Increase (RT-PCR exon skipping) ([8]; All patients): 7.3
Increase > 0.1 from Baseline (RT-PCR, patients) ([8]; All patients): 25 (100.0%)
Increase from Baseline (RT-PCR, patients) ([8]; All patients): 25 (100.0%)
No Increase > 0.1 from Baseline (RT-PCR, patients) ([8]; All patients): 0
Unchanged from Baseline (RT-PCR, patients) ([8]; All patients): 0
Decrease from Baseline (RT-PCR, patients) ([8]; Part 1 patients, 60-76 weeks): 0
Increase > 0.1 from Baseline (RT-PCR, patients) ([8]; Part 1 patients, 60-76 weeks): 8 (100.0%)
Increase from Baseline (RT-PCR, patients) ([8]; Part 1 patients, 60-76 weeks): 8 (100.0%)
No Increase > 0.1 from Baseline (RT-PCR, patients) ([8]; Part 1 patients, 60-76 weeks): 0
Unchanged from Baseline (RT-PCR, patients) ([8]; Part 1 patients, 60-76 weeks): 0
Decrease from Baseline (RT-PCR, patients) [8, 14]: 0
Increase > 0.1 from Baseline (RT-PCR, patients) [8, 14]: 17 (100.0%)
Increase from Baseline (RT-PCR, patients) [8, 14]: 17 (100.0%)
No Increase > 0.1 from Baseline (RT-PCR, patients) [8, 14]: 0
Unchanged from Baseline (RT-PCR, patients) [8, 14]: 0
Exon skipping in DMD patients [8]: increase over baseline levels in exon skipping
Exon skipping in DMD patients ([8]; listed as Golodirsen): observed in all patients

eteplirsen
Exon 51 skipping in vitro [9]: potent inducer of exon 51 skipping
Effect on the immune response [10]: no adverse effect on the immune response
Exon 51 skipping in vivo [11]: confirmed in vivo
